In patent publication US9173888B1, “Treatment and inhibition of protozoal diseases with nandrolone and its derivatives” (priority 2014, dated 2015) one finds IC50 data, which are given here for ten molecules.

One experiment concerns Leishmania major promastigotes. The experiment is described as follows: Anti-leishmanial assay (promastigote culture, 72 h, microscopic counting). Type of experiment: cell-based. The note with it: 72 h at 21-22° C., assays repeated thrice, read-out: Leishmanicidal Activity (IC50 in μM).
The IC50 is the midpoint of a concentration-inhibition curve. Regarding `C[C@]12[C@H](O)C[C@H]3[C@@H](CCC4=CC(=O)CC[C@@]43O)[C@@H]1CC[C@@H]2O` [Compound 2, 10β,12β,17β-Trihydroxy-19-nor-4-androsten-3-one], the IC50 was above 100 µM.

As for `C[C@]12CC[C@H]3[C@@H](CCC4=CC(=O)CC[C@@]43O)[C@@H]1C[C@@H](O)[C@@H]2O` [Compound 3, 10β,16α,17β-Trihydroxy-19-nor-4-androsten-3-one], the IC50 turned out to be 77.4 µM.

Take `C[C@]12CC[C@H]3[C@@H](C[C@@H](O)C4=CC(=O)CC[C@@]43O)[C@@H]1CC[C@@H]2O` [Compound 4, 6β,10β,17β-Trihydroxy-19-nor-4-androsten-3-one]: the IC50 was 70.9 µM.

In the case of `C[C@]12CC[C@H]3[C@@H](CCC4=CC(=O)CC[C@@]43O)[C@@H]1CC[C@@H]2O` [Compound 5, 10β,17β-Dihydroxy-19-nor-4-androsten-3-one], the IC50 was found to be 54.9 µM.

As to `C[C@]12CC[C@H]3[C@@H](C[C@@H](O)C4=CC(=O)CC[C@@H]43)[C@@H]1CC[C@@H]2O` [Compound 6, 6β,17β-Dihydroxy-19-nor-4-androsten-3-one], the IC50 was 80.2 µM.

Take `C[C@]12CC[C@H]3[C@@H](CCC4=CC(=O)CC[C@@]43O)[C@@H]1CCC2=O` [Compound 7, 10β-Hydroxy-19-nor-4-androsten-3,17-dione]: the IC50 was found to be 61.1 µM.

`C[C@]12CC[C@H]3[C@@H](CCC4=CC(=O)CC[C@@H]43)[C@@H]1C[C@H](O)[C@@H]2O` [Compound 8, 16β,17β-Dihydroxy-19-nor-4-androsten-3-one]: the IC50 came out at 29.6 µM.

The experiment is the same for the next values; noted with them: Leishmania major, 72 h, 72 h at 21-22° C., assays repeated thrice, read-out: Leishmanicidal Activity (IC50 in μM).
For the molecule `C[C@@H]1[C@H](O)[C@@H](C)/C=C/C=C/C=C/C=C/C=C/C=C/C=C/[C@H](O[C@@H]2O[C@H](C)[C@@H](O)[C@H](N)[C@@H]2O)C[C@@H]2O[C@](O)(C[C@@H](O)C[C@@H](O)[C@H](O)CC[C@@H](O)C[C@@H](O)CC(=O)O[C@H]1C)C[C@H](O)[C@H]2C(=O)O` [Amphotericin B, reference compound], the 50% inhibitory concentration (IC50) was 0.29 ± 0.05 µM.

In the case of `C[C@]12CC[C@H]3[C@@H](CCC4=CC(=O)CC[C@@H]43)[C@@H]1CC[C@@H]2O` [Compound 1, 17β-Hydroxy-19-nor-4-androsten-3-one, reference compound], the IC50 is 29.6 to 80.2 µM.

Take `N=C(N)c1ccc(OCCCCCOc2ccc(C(=N)N)cc2)cc1` [Pentamidine, reference compound]: the 50% inhibitory concentration (IC50) came out at 5.09 ± 0.09 µM.

Still in this experiment, the particulars now being: Leishmania major, 72 h, 72 h at 21-22° C., read-out: IC50 against leishmaniasis (unit printed as M).
As for `N=C(N)c1ccc(OCCCCCOc2ccc(C(=N)N)cc2)cc1` [Pentamidine, reference compound], the IC50 amounted to 5.09 µM.

Still in this experiment, the particulars now being: read-out: Leishmanicidal Activity (IC50 in μM), 72 h at 21-22° C., assays repeated thrice, listed as Nandrolone (1).
For `C[C@]12CC[C@H]3[C@@H](CCC4=CC(=O)CC[C@@H]43)[C@@H]1CC[C@@H]2O` [Compound 1, 17β-Hydroxy-19-nor-4-androsten-3-one, reference compound], the half-maximal inhibitory concentration (IC50) was 32 µM.
